In one test the target is T1, Nur77 (Homo sapiens, UniProt P22736).
T1 construct: the Pfr-Luc (Gal4-responsive luciferase) reporter sits in the same cells
As to the kind of experiment: Activity on HEK - Nur77 modulation (Gal4-DBD luciferase reporter in stable HEK293 cells). The test is classed as cell-based. The settings on record: HEK293 cells expressing Gal4-DBD-hNur77 and Pfr-Luc; 24 hours with compound; luminescence. How it is done:
Stable HEK293 cells expressing Gal4-DBD-FL-NOT, -hNur77, -hNOR1 and Pfr-Luc were obtained by limit dilution. HEK cells were grown in 75 cm^2 flask in DMEM high glucose 30-2002™ containing 10% calf serum, hygromycin at a content of 250 μg/ml, doxycycline at a content of 2 μg/ml (to induce expression) and 0.4 mg/ml of penicillin. After one week in culture, cells were harvested by trypsinization then plated onto 96 well dishes at the density of 20 000 cell per well in 75 μl of culture medium. After 24 hours compounds were added (25 μl per well) at different concentration for further 24 hours. The medium was removed and measurement was performed by adding 50 μl of Steadyglo (Promega, E2510) with 50 μl PBS per well for 15 minutes and plates were read using microplate luminescent reader.
For orientation: In a reporter assay the amount or activity of a reporter protein is the signal.

A further test has as its target T2, Nurr1 (Mus musculus, UniProt Q06219).
T2 construct: N2A cells obtained from ATCC were stably transfected with NBRE8x (50-AAGGTCA-30) in tandem coupled with luciferase reporter gene; host or cells: N2A neuroblastoma cells
In words: Activity on neuroblastoma cell lines - Nurr1 modulation (NBRE8x luciferase reporter in N2A cells). It is filed as cell-based. The conditions noted are these: N2A cells stably transfected with NBRE8x luciferase reporter; 24 hours with compound. How it is done: N2A cells obtained from ATCC were stably transfected with NBRE8x (50-AAGGTCA-30) in tandem coupled with luciferase reporter gene. Each NBRE sequence was separated with 5 nucleotides. N2A were grown in 75 cm^2 flask in DMEM containing 10% calf serum, 4.5 g/L glucose and 0.4 mg/ml geneticin. After one week in culture cells were harvested by trypsinization (0.25%, 30 minutes) then plated onto 96 well dishes at the density of 60 000 cell per well in 75 μl of DMEM without phenol red containing 4.5 g/l glucose, 10% lipid free serum from Hyclone. After 24 hours compounds were added (25 μl/well) at different concentration for further 24 hours. Measurement is performed by adding 100 μl of Steadylite per well for 30 minutes and plates were read using microplate […] reader.

From US12662487B2, “Imidazo[1,2-b][1,2,4]triazol derivatives for use in therapy” (SANOFI, priority 2021, dated 2026) come the findings set out here.

One may read the IC50 as the concentration at which inhibition is half-maximal. Broadly, the EC50 is the concentration giving half of the maximal effect.

Molecules are shown by their SMILES.

T2 sequence (Q06219 whole entry): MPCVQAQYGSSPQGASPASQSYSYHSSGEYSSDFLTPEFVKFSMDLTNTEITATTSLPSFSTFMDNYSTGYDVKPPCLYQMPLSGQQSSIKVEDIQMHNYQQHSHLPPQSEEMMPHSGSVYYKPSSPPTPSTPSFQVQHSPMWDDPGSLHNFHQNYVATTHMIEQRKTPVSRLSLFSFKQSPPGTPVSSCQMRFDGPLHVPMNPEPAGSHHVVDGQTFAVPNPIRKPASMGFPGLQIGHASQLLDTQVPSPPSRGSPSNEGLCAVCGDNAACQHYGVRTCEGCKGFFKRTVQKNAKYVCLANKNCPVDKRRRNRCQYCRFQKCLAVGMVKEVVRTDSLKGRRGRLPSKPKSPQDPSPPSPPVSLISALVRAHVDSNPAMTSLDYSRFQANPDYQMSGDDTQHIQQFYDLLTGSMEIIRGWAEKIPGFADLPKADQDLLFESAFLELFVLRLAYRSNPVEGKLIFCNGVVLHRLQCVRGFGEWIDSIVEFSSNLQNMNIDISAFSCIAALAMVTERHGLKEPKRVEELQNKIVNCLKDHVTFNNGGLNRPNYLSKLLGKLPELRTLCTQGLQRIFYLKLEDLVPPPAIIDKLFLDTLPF
T1 sequence (P22736 360-598 limits assumed): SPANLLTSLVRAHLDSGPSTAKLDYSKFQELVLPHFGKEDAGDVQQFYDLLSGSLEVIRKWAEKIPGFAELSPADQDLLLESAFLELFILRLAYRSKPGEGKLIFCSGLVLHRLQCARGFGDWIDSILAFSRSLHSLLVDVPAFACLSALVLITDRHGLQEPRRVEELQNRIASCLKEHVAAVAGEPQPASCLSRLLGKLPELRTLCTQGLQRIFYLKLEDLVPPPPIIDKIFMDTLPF

For `Cn1c(-c2ccc3cc[nH]c3c2)cn2nc(-c3ccc(F)cc3)nc12` [compound (1), 6-[2-(4-fluorophenyl)-4-methyl-imidazo[1,2-b][1,2,4]triazol-5-yl]-1H-indole], the half-inhibitory concentration (IC50) on Nur77 stood at 0.03 nM. In addition, the EC50 on Nurr1 was 0.7 nM.
Take `Cn1c(-c2cccc(F)c2)cn2nc(-c3ccc(F)cc3)nc12` [compound (2), 5-(3-fluorophenyl)-2-(4-fluorophenyl)-4-methyl-4H-imidazo[1,2-b][1,2,4]triazole]: the EC50 on Nurr1 turned out to be 63 nM.
For `Cn1c(-c2ccccc2)cn2nc(-c3cccc(CO)c3)nc12` [compound (3), [3-(4-methyl-5-phenyl-4H-imidazo[1,2-b][1,2,4]triazol-2-yl)phenyl]methanol], the IC50 at Nur77 stood at 0.9 nM. Besides, the EC50 on Nurr1 amounted to 0.4 nM.
